Reference: publication PMC10145010, “Tuning the Biological Activity of PI3Kδ Inhibitor by the Introduction of a Fluorine Atom Using the Computational Workflow” (Molecules, 2023)

Biological target: T1, PI3Kδ (Homo sapiens, UniProt O00329)
T1 construct: purchased Merck Millipore
Assay: In vitro PI3Kδ inhibition assay (ADP-Glo kinase assay)
Type: biochemical
Details: mean from two independent experiments, PIP2 substrate 30 μM, 25 °C, 1 h
Method: All compounds were tested by a biochemical assay that measured the inhibition of phosphatidylinositol […] production by PI3K isoform. The potency of the tested compounds was assessed by determining the ability of PI3Kδ enzymes (Merck Millipore) to convert ATP to ADP during an enzymatic reaction in the presence of these compounds at decreasing doses. The experiments were carried out using the ADP-Glo kinase assay kit (Promega), according to the manufacturer’s protocol. PIP2 lipid vesicles containing phosphoserine (ThermoFisher Scientific, Waltham, MA, USA) were used as a substrate in the enzymatic reaction. The composition of the reaction mixture and reaction conditions for PI3Kδ were as follows: concentration of PI3Kδ enzyme: 10 ng; reaction temperature and time: 25 °C and 1 h; final concentration of PIP2 substrate: 30 μM; and reaction buffer: 50 mM of HEPES (pH 7.5), 50 mM NaCl, 3 mM MgCl2, and 0.025 mg/mL of BSA.
After the reaction, the ADP-Glo reagent and the kinase detection reagent were sequentially added. The reaction mixture was incubated for 40 min (25 °C, 600 rpm) after the addition of each reagent. Finally, luminescence intensity was measured and the IC50 value was calculated using GraphPad Prism 7 software (GraphPad, Boston, MA, USA). The results were presented as the mean value of IC50 obtained from at least two independent experiments.

T1 sequence (O00329 whole entry): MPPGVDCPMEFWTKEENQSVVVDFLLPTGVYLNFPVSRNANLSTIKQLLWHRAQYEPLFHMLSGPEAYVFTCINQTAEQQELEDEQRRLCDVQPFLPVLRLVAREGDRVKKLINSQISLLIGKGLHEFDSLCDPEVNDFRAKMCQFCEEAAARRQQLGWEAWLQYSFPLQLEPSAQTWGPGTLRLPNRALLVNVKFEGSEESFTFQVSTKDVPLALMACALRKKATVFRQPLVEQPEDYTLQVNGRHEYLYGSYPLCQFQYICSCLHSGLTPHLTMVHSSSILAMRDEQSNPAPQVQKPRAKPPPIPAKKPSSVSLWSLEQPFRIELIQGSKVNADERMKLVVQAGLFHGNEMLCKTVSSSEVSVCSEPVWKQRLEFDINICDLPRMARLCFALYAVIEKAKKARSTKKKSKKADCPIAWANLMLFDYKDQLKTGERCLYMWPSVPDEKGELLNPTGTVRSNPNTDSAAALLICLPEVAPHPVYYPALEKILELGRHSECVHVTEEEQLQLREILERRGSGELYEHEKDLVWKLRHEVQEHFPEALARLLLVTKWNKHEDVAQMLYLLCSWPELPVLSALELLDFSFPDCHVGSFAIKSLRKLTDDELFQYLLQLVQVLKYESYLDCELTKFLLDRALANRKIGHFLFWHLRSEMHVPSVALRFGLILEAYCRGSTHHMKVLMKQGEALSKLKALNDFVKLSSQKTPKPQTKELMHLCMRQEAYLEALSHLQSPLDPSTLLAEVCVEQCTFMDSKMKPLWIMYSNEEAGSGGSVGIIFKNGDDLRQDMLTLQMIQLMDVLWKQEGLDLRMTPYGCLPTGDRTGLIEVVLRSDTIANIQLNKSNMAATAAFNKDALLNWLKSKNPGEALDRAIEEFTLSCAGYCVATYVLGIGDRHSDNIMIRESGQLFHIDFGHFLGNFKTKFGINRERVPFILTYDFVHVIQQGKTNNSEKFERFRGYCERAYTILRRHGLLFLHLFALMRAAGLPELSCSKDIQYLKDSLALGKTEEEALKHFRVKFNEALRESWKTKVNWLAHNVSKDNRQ
T1 sequence (P27986 whole entry partner): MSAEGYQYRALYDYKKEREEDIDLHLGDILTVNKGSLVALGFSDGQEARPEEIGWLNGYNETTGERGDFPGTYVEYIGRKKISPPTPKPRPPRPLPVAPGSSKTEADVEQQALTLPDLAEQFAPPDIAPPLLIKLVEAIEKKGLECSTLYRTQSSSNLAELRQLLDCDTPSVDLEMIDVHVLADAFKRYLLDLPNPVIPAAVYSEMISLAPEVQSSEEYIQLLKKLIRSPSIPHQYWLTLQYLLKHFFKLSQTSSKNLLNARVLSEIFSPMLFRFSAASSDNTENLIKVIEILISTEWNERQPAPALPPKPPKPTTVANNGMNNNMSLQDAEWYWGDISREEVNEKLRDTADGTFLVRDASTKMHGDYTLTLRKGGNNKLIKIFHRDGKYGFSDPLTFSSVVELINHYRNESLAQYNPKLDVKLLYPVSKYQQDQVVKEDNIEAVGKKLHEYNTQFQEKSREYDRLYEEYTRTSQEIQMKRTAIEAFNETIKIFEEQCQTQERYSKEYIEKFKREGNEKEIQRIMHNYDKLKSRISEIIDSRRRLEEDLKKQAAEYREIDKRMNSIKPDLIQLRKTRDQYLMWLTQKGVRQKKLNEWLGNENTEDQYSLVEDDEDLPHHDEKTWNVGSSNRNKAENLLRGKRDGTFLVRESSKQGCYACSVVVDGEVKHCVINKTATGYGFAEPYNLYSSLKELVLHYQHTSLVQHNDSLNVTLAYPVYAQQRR

IC50 | SMILES
275 nM | O=C(c1cc2nc(-n3c(C(F)F)nc4ccccc43)cc(N3CCOCC3)n2n1)N1CCN(Cc2ccccc2)CC1 [Compound 10, 1-[2-(4-Benzylpiperazine-1-carbonyl)-7-(morpholin-4-yl)pyrazolo[1,5-a]pyrimidin-5-yl]-2-(difluoromethyl)-1H-benzimidazole]
751 nM | Fc1cccc(CN2CCN(Cc3cc4nc(-n5c(C(F)F)nc6ccccc65)cc(N5CCOCC5)n4n3)CC2)c1 [Compound 8]
212 nM | O=C(c1cc2nc(-n3c(C(F)F)nc4ccccc43)cc(N3CCOCC3)n2n1)N1CCN(Cc2ccccc2F)CC1 [Compound 11, 2-(Difluoromethyl)-1-(2-{4-[(2-fluorophenyl)methyl]piperazine-1-carbonyl}-7-(morpholin-4-yl)pyrazolo[1,5-a]pyrimidin-5-yl)-1H-benzimidazole]
181 nM | O=C(c1cc2nc(-n3c(C(F)F)nc4ccccc43)cc(N3CCOCC3)n2n1)N1CCN(Cc2ccc(F)cc2)CC1 [Compound 13, 2-(Difluoromethyl)-1-(2-{4-[(4-fluorophenyl)methyl]piperazine-1-carbonyl}-7-(morpholin-4-yl)pyrazolo[1,5-a]pyrimidin-5-yl)-1H-benzimidazole]
489 nM | Fc1ccc(CN2CCN(Cc3cc4nc(-n5c(C(F)F)nc6ccccc65)cc(N5CCOCC5)n4n3)CC2)cc1 [Compound 9]
92 nM | O=C(c1cc2nc(-n3c(C(F)F)nc4ccccc43)cc(N3CCOCC3)n2n1)N1CCN(Cc2cccc(F)c2)CC1 [Compound 12, 2-(Difluoromethyl)-1-(2-{4-[(3-fluorophenyl)methyl]piperazine-1-carbonyl}-7-(morpholin-4-yl)pyrazolo[1,5-a]pyrimidin-5-yl)-1H-benzimidazole]

More lines, now with the values behind:

SMILES | IC50
Fc1ccccc1CN1CCN(Cc2cc3nc(-n4c(C(F)F)nc5ccccc54)cc(N4CCOCC4)n3n2)CC1 [Compound 7] | 640 nM
FC(F)c1nc2ccccc2n1-c1cc(N2CCOCC2)n2nc(CN3CCN(Cc4ccccc4)CC3)cc2n1 [Compound 6, 1-{2-[(4-Benzylpiperazin-1-yl)methyl]-7-(morpholin-4-yl)pyrazolo[1,5-a]pyrimidin-5-yl}-2-(difluoromethyl)-1H-benzimidazole] | 118 nM
CC(C)(C)N1CCN(Cc2nn3c(N4CCOCC4)cc(-n4c(C(F)F)nc5ccccc54)nc3c2Br)CC1 [Compound 5, 1-{3-Bromo-2-[(4-tert-butylpiperazin-1-yl)methyl]-7-(morpholin-4-yl)pyrazolo[1,5-a]pyrimidin-5-yl}-2-(difluoromethyl)-1H-benzimidazole] | 50 nM
CC(C)(C)N1CCN(Cc2nn3c(N4CCOCC4)cc(-n4c(C(F)F)nc5ccccc54)nc3c2Cl)CC1 [Compound 4, 1-{2-[(4-Tert-butylpiperazin-1-yl)methyl]-3-chloro-7-(morpholin-4-yl)pyrazolo[1,5-a]pyrimidin-5-yl}-2-(difluoromethyl)-1H-benzimidazole] | 44 nM
